Target: TRPC6 (Homo sapiens (Human), UniProt Q9Y210)
Assay: High throughput screening assay: fluorescent calcium (Fluo4/AM) assay of TRPC6 channel activation by GSK1702934A in HEK293/TREx cells
Assay type: cell-based
Conditions: HEK293/TREx cells stably transfected with TRPC6; agonist GSK1702934A; 7 concentrations 20 μM to 0.027 μM, triplicate
Procedure, shortened: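 HEK293/TREx cells stably carrying a TRPC6 construct were induced with 1 μg/ml tetracycline, plated at ~35,000 cells/well in 384-well CellBind plates, and loaded with 0.5 μM Fluo4/AM in Ringer's with 1% Pluronic F-127. Compounds were added 2 minutes before 125 nM GSK1702934A in high-Ca2+ Ringer. Fluorescence was read on a Hamamatsu FDSS 6000, normalized to controls, and fitted for IC50 from triplicates.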

Chain of TRPC6 (Q9Y210 whole entry, species assumed): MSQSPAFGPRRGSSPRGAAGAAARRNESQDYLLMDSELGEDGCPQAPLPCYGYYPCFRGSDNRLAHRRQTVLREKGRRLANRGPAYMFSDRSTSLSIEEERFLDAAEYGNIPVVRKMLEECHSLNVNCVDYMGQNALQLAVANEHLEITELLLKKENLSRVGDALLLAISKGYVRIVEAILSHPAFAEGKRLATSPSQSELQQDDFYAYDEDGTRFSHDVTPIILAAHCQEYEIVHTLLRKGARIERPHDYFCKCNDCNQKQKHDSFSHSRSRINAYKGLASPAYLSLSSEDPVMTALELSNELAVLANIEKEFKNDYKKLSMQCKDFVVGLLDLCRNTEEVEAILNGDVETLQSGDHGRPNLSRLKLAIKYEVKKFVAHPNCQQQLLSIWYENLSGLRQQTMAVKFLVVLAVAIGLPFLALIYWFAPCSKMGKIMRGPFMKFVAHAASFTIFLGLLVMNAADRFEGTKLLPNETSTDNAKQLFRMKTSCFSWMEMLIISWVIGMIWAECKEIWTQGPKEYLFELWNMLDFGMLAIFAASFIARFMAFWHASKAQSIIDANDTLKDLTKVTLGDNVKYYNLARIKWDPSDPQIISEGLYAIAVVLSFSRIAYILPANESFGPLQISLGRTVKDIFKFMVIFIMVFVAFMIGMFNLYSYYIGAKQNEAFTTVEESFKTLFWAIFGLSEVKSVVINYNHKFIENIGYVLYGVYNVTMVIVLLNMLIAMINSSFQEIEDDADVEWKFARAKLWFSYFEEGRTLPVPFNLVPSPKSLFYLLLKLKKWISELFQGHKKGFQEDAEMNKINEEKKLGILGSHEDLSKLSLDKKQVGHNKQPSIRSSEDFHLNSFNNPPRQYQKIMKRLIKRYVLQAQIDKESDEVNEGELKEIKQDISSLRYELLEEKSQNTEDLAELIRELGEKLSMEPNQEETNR

**Q.** With COc1cc(C(=O)N2CCC(c3cnc(N)cc3OC)CC2)ncc1OCC(C)C(F)(F)F (single isomer, unassigned) [Compound 94a, 4-Methoxy-5-(1-{4-methoxy-5-[3,3,3-trifluoro-2-methylpropoxy]pyridine-2-carbonyl}piperidin-4-yl)-pyridin-2-amine] as the compound, how does the IC50 read?
**A.** Its IC50 is 343 nM.

**Q.** For COc1cc(C(=O)N2CCC(c3cc(OC)c(N)nn3)CC2)ncc1Oc1ccc(F)cc1 [Compound 11, [4-(6-Amino-5-methoxy-pyridazin-3-yl)-piperidin-1-yl]-[5-(4-fluoro-phenoxy)-4-methoxy-pyridin-2-yl]-methanone], which IC50 is on record?
**A.** The IC50 was 27 nM.

**Q.** How did the IC50 turn out when COc1cc(C(=O)N2CCC(c3nnc(N)cc3C)CC2)ncc1Oc1ccccc1 [Compound 31, 6-[1-(4-Methoxy-5-phenoxypyridine-2-carbonyl)piperidin-4-yl]-5-methylpyridazin-3-amine trifluoroacetic acid] was run?
**A.** Its IC50 is 120 nM.

**Q.** Which IC50 does the source give for COc1cc(C(=O)N2CCN(c3cnc(N)cc3OC)CC2)ncc1Oc1ccc(F)cc1 [Compound 1, 5-{4-[5-(4-Fluorophenoxy)-4-methoxypyridine-2-carbonyl]piperazin-1-yl}-4-methoxypyridin-2-amine] here?
**A.** Its IC50 is less than 27 nM.

**Q.** How did the IC50 turn out when COc1cc(C(=O)N2CCC(c3cnc(N)cc3OC)CC2)ncc1Oc1ccc(C(F)(F)F)cc1 [Compound 24, (6-Amino-4-methoxy-3′,4′,5′,6′-tetrahydro-2′H-[3,4′]bipyridinyl-1′-yl)-[4-methoxy-5-(4-trifluoromethyl-phenoxy)-pyridin-2-yl]-methanone] was run?
**A.** The IC50 was 67 nM.

**Q.** How did the IC50 turn out when COc1cc(C(=O)N2CCC(c3cnc(N)cc3OC)CC2)ncc1OCC(C)C(F)(F)F (single isomer, unassigned) [Compound 94b, 4-Methoxy-5-(1-{4-methoxy-5-[3,3,3-trifluoro-2-methylpropoxy]pyridine-2-carbonyl}piperidin-4-yl)-pyridin-2-amine] was run?
**A.** Its IC50 is 351 nM.

**Q.** For COc1cc(C(=O)N2CCC(c3cnc(N)cc3OC)CC2)ncc1O[C@@H](C)C1CC1 [Compound 70, (6-Amino-4-methoxy-3′,4′,5′,6′-tetrahydro-2′H-[3,4′]bipyridinyl-1′-yl)-[5-((S)-1-cyclopropyl-ethoxy)-4-methoxy-pyridin-2-yl]-methanone], which IC50 is on record?
**A.** The IC50 was 640 nM.

**Q.** COc1cc(C(=O)N2CCC(c3ccc(N)nn3)CC2)ncc1OCCC1CC1 [Compound 67, [4-(6-Amino-pyridazin-3-yl)-piperidin-1-yl]-[5-(2-cyclopropyl-ethoxy)-4-methoxy-pyridin-2-yl]-methanone] was tested. Which IC50 did it give?
**A.** The IC50 was 560 nM.

**Q.** With COc1cc(C(=O)N2CCC(c3cnc(N)cc3OC)CC2)ncc1OCC1CC1 [Compound 37, 5-{1-[5-(Cyclopropylmethoxy)-4-methoxypyridine-2-carbonyl]piperidin-4-yl}-4-methoxypyridin-2-amine] as the compound, how does the IC50 read?
**A.** The IC50 was 160 nM.

**Q.** COc1cc(C(=O)N2CCC(c3cnc(N)cc3OC)CC2)ncc1OC(C)C [Compound 72, (6-Amino-4-methoxy-3′,4′,5′,6′-tetrahydro-2′H-[3,4′]bipyridinyl-1′-yl)-(5-isopropoxy-4-methoxy-pyridin-2-yl)-methanone] was tested. Which IC50 did it give?
**A.** Its IC50 is 910 nM.

**Q.** COc1cc(C(=O)N2CCC(c3cnc(N)cc3OC)CC2)ncc1OCC1(C)CC1 [Compound 26, (6-Amino-4-methoxy-3′,4′,5′,6′-tetrahydro-2′H-[3,4′]bipyridinyl-1′-yl)-[4-methoxy-5-(1-methyl-cyclopropylmethoxy)-pyridin-2-yl]-methanone] was tested. Which IC50 did it give?
**A.** Its IC50 is 71 nM.

**Q.** With COc1cc(C(=O)N2CCC(c3ccc(N)nn3)CC2)ncc1Oc1ccc(OC2CC2)cc1 [Compound 40, [4-(6-Amino-pyridazin-3-yl)-piperidin-1-yl]-[5-(4-cyclopropoxy-phenoxy)-4-methoxy-pyridin-2-yl]-methanone] as the compound, how does the IC50 read?
**A.** Its IC50 is 170 nM.

**Q.** For COc1cc(C(=O)N2CCC(c3cnc(N)cc3OC)CC2)ncc1OCC(C)C [Compound 39, 4-Methoxy-5-{1-[4-methoxy-5-(2-methylpropoxy)pyridine-2-carbonyl]piperidin-4-yl}-pyridin-2-amine trifluoroacetic acid], which IC50 is on record?
**A.** Its IC50 is 170 nM.

**Q.** For CCOc1cc(N)nnc1C1CCN(C(=O)c2cc(OC)c(Oc3ccccc3)cn2)CC1 [Compound 85, [4-(6-Amino-4-ethoxy-pyridazin-3-yl)-piperidin-1-yl]-[4-methoxy-5-(phenoxy)-pyridin-2-yl]-methanone], which IC50 is on record?
**A.** Its IC50 is 320 nM.

**Q.** With CCCOc1cc(N)ncc1C1CCN(C(=O)c2cc(OC)c(Oc3ccccc3)cn2)CC1 [Compound 86, (6-Amino-4-propoxy-3′,4′,5′,6′-tetrahydro-2′H-[3,4′]bipyridinyl-1′-yl)-[5-(phenoxy)-4-methoxy-pyridin-2-yl]-methanone] as the compound, how does the IC50 read?
**A.** Its IC50 is 350 nM.

**Q.** Which IC50 does the source give for COc1cc(C(=O)N2CCC(c3ccc(N)nn3)CC2)ncc1Oc1ccc(C(F)(F)F)cc1 [Compound 33, [4-(6-Amino-pyridazin-3-yl)-piperidin-1-yl]-[4-methoxy-5-(4-trifluoromethyl-phenoxy)-pyridin-2-yl]-methanone] here?
**A.** The IC50 was 82 nM.

**Q.** For COc1cc(C(=O)N2C3COCC2CC(c2cnc(N)cc2OC)C3)ncc1Oc1ccccc1 (stereo not shown) [Compound 68, [7-(6-Amino-4-methoxy-pyridin-3-yl)-3-oxa-9-aza-bicyclo[3.3.1]non-9-yl]-(4-methoxy-5-phenoxy-pyridin-2-yl)-methanone], which IC50 is on record?
**A.** Its IC50 is 630 nM.

**Q.** How did the IC50 turn out when COc1cc(N)ncc1N1CCN(C(=O)c2ccc(Oc3ccccc3)cn2)[C@@H]([C@H](C)O)C1 [Compound 58, (1S)-1-[(2R)-4-(6-amino-4-methoxypyridin-3-yl)-1-(5-phenoxypyridine-2-carbonyl)piperazin-2-yl]ethan-1-ol] was run?
**A.** Its IC50 is 100 nM.

**Q.** How did the IC50 turn out when COc1cc(C(=O)N2CCN(c3cnc(N)cc3OC)C[C@H]2CO)ncc1Oc1ccc(F)cc1 [Compound 63, [(S)-4-(6-Amino-4-methoxy-pyridin-3-yl)-2-hydroxymethyl-piperazin-1-yl]-[5-(4-fluoro-phenoxy)-4-methoxy-pyridin-2-yl]-methanone] was run?
**A.** Its IC50 is 670 nM.

**Q.** COC[C@H]1CN(c2cnc(N)cc2OC)CCN1C(=O)c1cc(OC)c(Oc2ccc(F)cc2)cn1 [Compound 55, [(R)-4-(6-Amino-4-methoxy-pyridin-3-yl)-2-methoxymethyl-piperazin-1-yl]-[5-(4-fluoro-phenoxy)-4-methoxy-pyridin-2-yl]-methanone] was tested. Which IC50 did it give?
**A.** Its IC50 is 220 nM.

**Q.** With COc1cc(C(=O)N2CCC(c3ccc(N)nn3)CC2)ncc1OCC1CCC1 [Compound 25, [4-(6-Amino-pyridazin-3-yl)-piperidin-1-yl]-(5-cyclobutylmethoxy-4-methoxy-pyridin-2-yl)-methanone] as the compound, how does the IC50 read?
**A.** Its IC50 is 70 nM.

**Q.** COc1cc(C(=O)N2CCC(c3cnc(N)cc3OC3CC3)CC2)ncc1Oc1ccccc1 [Compound 84, (6-Amino-4-cyclopropoxy-3′,4′,5′,6′-tetrahydro-2′H-[3,4′]bipyridinyl-1′-yl)-[5-(phenoxy)-4-methoxy-pyridin-2-yl]-methanone] was tested. Which IC50 did it give?
**A.** Its IC50 is 300 nM.

**Q.** Which IC50 does the source give for COc1cc(C(=O)N2CCC(c3ccc(N)nc3)CC2)ncc1Oc1ccc(F)cc1 [Compound 14, (6-Amino-3′,4′,5′,6′-tetrahydro-2′H-[3,4′]bipyridinyl-1′-yl)-[5-(4-fluoro-phenoxy)-4-methoxy-pyridin-2-yl]-methanone] here?
**A.** Its IC50 is 27 nM.

**Q.** Which IC50 does the source give for COc1cc(C(=O)N2CCC(c3cc(OC)c(N)nn3)CC2)ncc1Oc1ccccc1 [Compound 21, [4-(6-Amino-5-methoxy-pyridazin-3-yl)-piperidin-1-yl]-(4-methoxy-5-phenoxy-pyridin-2-yl)-methanone] here?
**A.** Its IC50 is 43 nM.

**Q.** COc1cc(C(=O)N2CCC(c3cnc(N)cc3OC)CC2)ncc1OCC1(CF)CC1 [Compound 64, (6-Amino-4-methoxy-3′,4′,5′,6′-tetrahydro-2′H-[3,4′]bipyridinyl-1′-yl)-[5-(1-fluoromethyl-cyclopropylmethoxy)-4-methoxy-pyridin-2-yl]-methanone] was tested. Which IC50 did it give?
**A.** The IC50 was 820 nM.

**Q.** With COc1cc(C(=O)N2C3CCC2CN(c2cnc(N)cc2OC)C3)ncc1Oc1ccc(F)cc1 [Compound 38, [3-(6-Amino-4-methoxy-pyridin-3-yl)-3,8-diaza-bicyclo[3.2.1]oct-8-yl]-[5-(4-fluoro-phenoxy)-4-methoxy-pyridin-2-yl]-methanone] as the compound, how does the IC50 read?
**A.** Its IC50 is 170 nM.

**Q.** How did the IC50 turn out when COc1cc(C(=O)N2CCN(c3ccc(N)nc3)C[C@@H]2CO)ncc1Oc1ccccc1 [Compound 81, [(R)-4-(6-Amino-pyridin-3-yl)-2-hydroxymethyl-piperazin-1-yl]-(4-methoxy-5-phenoxy-pyridin-2-yl)-methanone] was run?
**A.** The IC50 was 71 nM.

**Q.** Which IC50 does the source give for COc1cc(C(=O)N2CCC(c3ccc(N)nn3)CC2)ncc1Oc1ccc(OC(F)(F)F)cc1 [Compound 80, [4-(6-Amino-pyridazin-3-yl)-piperidin-1-yl]-[4-methoxy-5-(4-trifluoromethoxy-phenoxy)-pyridin-2-yl]-methanone] here?
**A.** The IC50 was less than 27 nM.
